Results from patent US11046699B2, “Pyrazolo-pyrimidin-amino-cycloalkyl compounds and their therapeutic uses” (RAPT THERAPEUTICS, INC., priority 2018, dated 2021).

Molecular target: GCN2 (Homo sapiens, UniProt Q9P2K8)
Assay: GCN2 enzymatic endpoint assay: phosphorylation of GFP-eIF2α measured by TR-FRET (Lanthascreen)
Type: biochemical
Conditions: tested as described in Example 77; compound and/or hydrochloride, dihydrochloride or trifluoroacetic acid salt; read-out: IC 50 Activity
Procedure, shortened: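 Endpoint GCN2 reaction with low ATP (2 μM) and 80 nM GFP-eIF2α, room temperature, 90 minutes. Detection mix with EDTA and Tb-labelled antibody; 520 nm/495 nm emission ratio reported.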

Chain of GCN2 (Q9P2K8 whole entry): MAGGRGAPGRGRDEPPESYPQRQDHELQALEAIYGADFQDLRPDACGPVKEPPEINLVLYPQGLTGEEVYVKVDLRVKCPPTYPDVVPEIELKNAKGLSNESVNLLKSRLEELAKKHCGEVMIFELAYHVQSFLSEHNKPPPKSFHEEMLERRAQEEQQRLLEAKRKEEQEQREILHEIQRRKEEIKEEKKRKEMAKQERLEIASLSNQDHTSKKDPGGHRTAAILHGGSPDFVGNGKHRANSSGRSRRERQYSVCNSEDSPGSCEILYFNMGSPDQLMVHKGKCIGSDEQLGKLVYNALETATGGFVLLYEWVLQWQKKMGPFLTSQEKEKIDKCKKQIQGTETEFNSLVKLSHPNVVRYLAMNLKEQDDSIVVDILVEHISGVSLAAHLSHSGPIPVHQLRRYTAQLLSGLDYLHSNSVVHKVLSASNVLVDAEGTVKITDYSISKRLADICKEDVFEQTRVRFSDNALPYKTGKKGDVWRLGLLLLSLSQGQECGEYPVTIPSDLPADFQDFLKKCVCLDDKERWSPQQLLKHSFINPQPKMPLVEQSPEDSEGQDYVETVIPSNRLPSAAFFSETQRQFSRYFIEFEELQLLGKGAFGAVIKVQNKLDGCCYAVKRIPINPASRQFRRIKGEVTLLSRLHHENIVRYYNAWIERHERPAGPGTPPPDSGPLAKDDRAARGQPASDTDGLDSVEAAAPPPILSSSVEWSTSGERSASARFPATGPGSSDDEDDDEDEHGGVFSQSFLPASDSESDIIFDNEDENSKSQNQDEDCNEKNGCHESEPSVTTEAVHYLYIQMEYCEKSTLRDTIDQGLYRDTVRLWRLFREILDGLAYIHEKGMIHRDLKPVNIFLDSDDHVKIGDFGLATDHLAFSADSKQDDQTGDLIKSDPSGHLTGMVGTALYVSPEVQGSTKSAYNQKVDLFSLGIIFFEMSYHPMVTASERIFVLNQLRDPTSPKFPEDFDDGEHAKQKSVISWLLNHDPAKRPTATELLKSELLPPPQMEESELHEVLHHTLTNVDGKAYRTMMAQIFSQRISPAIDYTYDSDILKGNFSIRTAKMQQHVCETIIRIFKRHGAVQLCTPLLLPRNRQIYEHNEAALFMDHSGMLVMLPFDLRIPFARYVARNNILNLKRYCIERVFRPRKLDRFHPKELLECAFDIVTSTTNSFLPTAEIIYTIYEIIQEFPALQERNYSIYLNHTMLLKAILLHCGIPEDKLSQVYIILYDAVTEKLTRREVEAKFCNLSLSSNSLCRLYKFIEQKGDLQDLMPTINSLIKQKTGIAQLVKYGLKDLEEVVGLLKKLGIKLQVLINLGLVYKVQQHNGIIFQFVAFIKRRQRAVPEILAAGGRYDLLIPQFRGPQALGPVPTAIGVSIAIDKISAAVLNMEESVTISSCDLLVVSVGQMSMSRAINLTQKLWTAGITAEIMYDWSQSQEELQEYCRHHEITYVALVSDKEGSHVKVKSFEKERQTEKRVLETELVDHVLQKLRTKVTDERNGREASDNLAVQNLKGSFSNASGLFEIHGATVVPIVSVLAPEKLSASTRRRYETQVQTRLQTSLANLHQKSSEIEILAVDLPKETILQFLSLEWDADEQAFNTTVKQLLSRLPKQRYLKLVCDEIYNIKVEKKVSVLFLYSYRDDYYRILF

SMILES | IC50
CNC(=O)[C@]1(C(F)(F)F)CC[C@@H](Nc2ncc3c(Br)nn(-c4cc(F)c5ncccc5c4)c3n2)C1 [(1S,3R)-3-[[3-bromo-1-(8-fluoro-6-quinolyl)pyrazolo[3,4-d]pyrimidin-6-yl]amino]-N-methyl-1-(trifluoromethyl)cyclopentane-carboxamide] | 25 to 200 nM
CNC(=O)[C@]1(C)CC[C@@H](Nc2ncc3c(Br)nn(-c4ccc(-c5nnc(C)s5)c(CCO)c4)c3n2)C1 [(1R,3R)-3-[[3-bromo-1-[3-(2-hydroxyethyl)-4-(5-methyl-1,3,4-thiadiazol-2-yl)phenyl]pyrazolo[3,4-d]pyrimidin-6-yl]amino]-N,1-dimethyl-cyclopentanecarboxamide] | 25 to 200 nM
N#CCN1CCN(C(=O)[C@@H]2CC[C@@H](Nc3ncc4c(Br)nn(-c5cc(F)c6ncccc6c5)c4n3)C2)CC1 [2-[4-[(1R,3R)-3-[[3-bromo-1-(8-fluoro-6-quinolyl)pyrazolo[3,4-d]pyrimidin-6-yl]amino]cyclopentanecarbonyl]piperazin-1-yl]acetonitrile] | 25 to 200 nM
CNC(=O)[C@]1(C)CC[C@@H](Nc2ncc3c(Br)nn(-c4ccc(-n5cccn5)cc4)c3n2)C1 [(1R,3R)-3-[[3-bromo-1-(4-pyrazol-1-ylphenyl)pyrazolo[3,4-d]pyrimidin-6-yl]amino]-N,1-dimethyl-cyclopentane-carboxamide] | 25 to 200 nM
CNC(=O)[C@]1(C)CC[C@@H](Nc2ncc3c(Br)nn(-c4ccc(-c5nnc(C)s5)c(CC(C#N)CO)c4)c3n2)C1 (stereo partly drawn) [(1R,3R)-3-[[3-bromo-1-[3-(2-cyano-3-hydroxy-propyl)-4-(5-methyl-1,3,4-thiadiazol-2-yl)phenyl]pyrazolo[3,4-d]pyrimidin-6-yl]amino]-N,1-dimethyl-cyclopentanecarboxamide] | < 25 nM
C[C@H](N)c1cc(Cl)cc(-n2nc(Br)c3cnc(N[C@@H]4CC[C@@](C)(C#N)C4)nc32)c1 | 25 to 200 nM
CNC(=O)[C@@H]1CC[C@@H](Nc2ncc3c(Br)nn(-c4cc(C#N)c5ncccc5c4)c3n2)C1 [(1R,3R)-3-((3-bromo-1-(8-cyanoquinolin-6-yl)-1H-pyrazolo[3,4-d]pyrimidin-6-yl)amino)-N-methylcyclopentane-1-carboxamide] | < 25 nM
CNC(=O)[C@]1(C)CC[C@@H](Nc2ncc3c(Br)nn(-c4cc(Cl)cc(CN=S(C)(=O)O)c4)c3n2)C1 | 25 to 200 nM
CNC(=O)[C@]1(C)CC[C@@H](Nc2ncc3c(Br)nn(-c4cc(C#N)cc(OC5CNC5)c4)c3n2)C1 [(1R,3R)-3-[[1-[3-(azetidin-3-yloxy)-5-cyano-phenyl]-3-bromo-pyrazolo[3,4-d]pyrimidin-6-yl]amino]-N,1-dimethyl-cyclopentanecarboxamide] | 25 to 200 nM
O=C(NCCN1CCOCC1)[C@@H]1CC[C@@H](Nc2ncc3c(Br)nn(-c4ccc5ncccc5c4)c3n2)C1 [(1R,3R)-3-((3-bromo-1-(quinolin-6-yl)-1H-pyrazolo[3,4-d]pyrimidin-6-yl)amino)-N-(2-morpholinoethyl)cyclopentane-1-carboxamide] | 25 to 200 nM
COCCNC(=O)[C@@H]1CCC(Nc2ncc3c(Br)nn(-c4ccc(-c5nnc(C)s5)cc4)c3n2)C1 (stereo partly drawn) [(1R)-3-[[3-bromo-1-[4-(5-methyl-1,3,4-thiadiazol-2-yl)phenyl]pyrazolo[3,4-d]pyrimidin-6-yl]amino]-N-(2-methoxy-ethyl)cyclopentanecarboxamide] | 25 to 200 nM
O=S(=O)(NC1CCC1)[C@@H]1CC[C@@H](Nc2ncc3c(Br)nn(-c4ccc5ncccc5c4)c3n2)C1 [(1R,3R)-3-((3-bromo-1-(quinolin-6-yl)-1H-pyrazolo[3,4-d]pyrimidin-6-yl)amino)-N-cyclobutylcyclopentane-1-sulfonamide] | 500 to 1000 nM
CNC(=O)[C@]1(C)CC[C@@H](Nc2ncc3c(Br)nn(-c4ccc(C#N)c(CO)c4)c3n2)C1 [(1R,3R)-3-[[3-bromo-1-[4-cyano-3-(hydroxymethyl)phenyl]pyrazolo[3,4-d]pyrimidin-6-yl]amino]-N,1-dimethyl-cyclopentanecarboxamide] | 25 to 200 nM
